The values that follow are results of earlier work, collected in patent US11773111B1, “Selective 5-LO inhibitors for the treatment of bronchial asthma” (KING FAISAL UNIVERSITY, priority 2022, dated 2023).

For data set [1] the following is noted: clinical use.
Test in data set [2]: not given
This is another data set of the same source.

In the case of `CC(c1cc2ccccc2s1)N(O)C(N)=O` (stereo not drawn) [Zileuton], the serum half-life was 3 h. The undesirable side effects entry in data set [1] is listed as “hepatoxicity”. Besides, the plasma protein binding in data set [2] is listed as 93%.
